Test results taken from patent publication US11845742B2, “Therapeutic compounds and methods to treat infection” (priority 2017, dated 2023).
≈ marks a conversion by molar mass, not a printed value. Like-named read-outs stand apart in the source and are kept apart here.

Legend:
[1] = test system: MreB; conditions: P. aeruginosa; background statement; cited from earlier work
[2] = molecular target: T1, MexAB-OprM efflux transporter (Pseudomonas aeruginosa, UniProt P52002); conditions: wild-type P. aeruginosa, background statement; cited from earlier work
T1 construct: MexAB-OprM efflux transporter present in wild-type P. aeruginosa; endogenous in cells; host or cells: wild-type P. aeruginosa
T1 sequence (P52477 24-383): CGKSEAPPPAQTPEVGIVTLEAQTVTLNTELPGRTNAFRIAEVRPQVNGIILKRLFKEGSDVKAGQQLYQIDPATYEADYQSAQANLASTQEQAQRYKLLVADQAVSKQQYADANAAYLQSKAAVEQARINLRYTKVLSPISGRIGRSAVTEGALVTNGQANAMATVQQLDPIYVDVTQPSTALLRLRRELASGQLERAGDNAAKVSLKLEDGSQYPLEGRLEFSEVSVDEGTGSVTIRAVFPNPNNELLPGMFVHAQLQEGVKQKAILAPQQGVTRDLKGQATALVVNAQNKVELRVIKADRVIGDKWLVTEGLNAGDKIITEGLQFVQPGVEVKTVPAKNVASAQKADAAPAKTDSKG
T1 sequence (P52002 whole entry): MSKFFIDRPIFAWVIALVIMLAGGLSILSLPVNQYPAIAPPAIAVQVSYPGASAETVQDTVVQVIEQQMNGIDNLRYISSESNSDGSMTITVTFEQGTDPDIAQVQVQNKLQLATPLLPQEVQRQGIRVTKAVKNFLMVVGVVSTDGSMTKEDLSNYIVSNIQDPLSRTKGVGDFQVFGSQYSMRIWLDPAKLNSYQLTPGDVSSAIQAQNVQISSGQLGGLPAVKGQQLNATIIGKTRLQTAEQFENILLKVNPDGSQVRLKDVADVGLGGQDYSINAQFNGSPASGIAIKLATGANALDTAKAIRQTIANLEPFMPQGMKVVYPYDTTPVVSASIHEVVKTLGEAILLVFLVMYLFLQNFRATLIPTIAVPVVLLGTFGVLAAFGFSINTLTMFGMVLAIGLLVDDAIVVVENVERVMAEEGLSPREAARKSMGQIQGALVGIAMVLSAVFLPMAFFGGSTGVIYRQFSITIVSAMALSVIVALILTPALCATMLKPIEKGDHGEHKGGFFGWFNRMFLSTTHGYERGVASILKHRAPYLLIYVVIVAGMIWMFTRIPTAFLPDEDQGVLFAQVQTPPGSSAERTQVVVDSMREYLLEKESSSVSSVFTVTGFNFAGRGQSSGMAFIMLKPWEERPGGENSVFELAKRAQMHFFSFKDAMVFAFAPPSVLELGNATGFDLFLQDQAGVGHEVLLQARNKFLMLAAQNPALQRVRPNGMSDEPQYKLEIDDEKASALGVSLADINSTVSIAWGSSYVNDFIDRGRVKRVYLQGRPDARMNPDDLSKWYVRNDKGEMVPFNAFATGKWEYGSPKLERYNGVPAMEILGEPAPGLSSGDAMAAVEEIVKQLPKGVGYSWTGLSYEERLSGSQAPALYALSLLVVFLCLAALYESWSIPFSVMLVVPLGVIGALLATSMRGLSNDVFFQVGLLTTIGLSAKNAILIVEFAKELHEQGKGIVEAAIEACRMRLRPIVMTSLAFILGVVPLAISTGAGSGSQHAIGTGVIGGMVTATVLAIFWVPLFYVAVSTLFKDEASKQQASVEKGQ
T1 sequence (Q51487 18-485, further chain): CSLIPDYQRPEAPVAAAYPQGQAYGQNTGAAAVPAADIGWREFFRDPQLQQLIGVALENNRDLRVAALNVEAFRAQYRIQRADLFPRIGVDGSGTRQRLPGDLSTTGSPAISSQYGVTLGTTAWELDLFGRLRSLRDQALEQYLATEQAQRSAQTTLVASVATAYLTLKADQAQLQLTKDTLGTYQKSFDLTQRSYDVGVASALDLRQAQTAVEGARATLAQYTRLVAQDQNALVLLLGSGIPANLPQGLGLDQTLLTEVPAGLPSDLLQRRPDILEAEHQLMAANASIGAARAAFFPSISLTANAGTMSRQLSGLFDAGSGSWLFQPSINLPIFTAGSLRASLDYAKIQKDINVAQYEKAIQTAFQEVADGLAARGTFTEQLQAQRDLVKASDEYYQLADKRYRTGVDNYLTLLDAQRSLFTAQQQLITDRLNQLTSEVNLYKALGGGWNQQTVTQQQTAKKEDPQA

[3] = test system: P. Aeruginosa PAO1; experiment: Intrinsic MIC assay (broth microdilution), P. aeruginosa PAO1; assay type: cell-based, Pseudomonas aeruginosa; conditions: for MIC: Pseudomonas aeruginosa, read-out: Intrinsic MIC
Experimental: (§1) MIC assays were conducted in accordance with Clinical and Laboratory Standards Institute (CLSI) guidelines for broth microdilution.
(§2) The intrinsic MIC of the experimental EPIs was tested with the method described. The 2-fold serial dilution begins with 100 μg/mL of tested compound in the first column of the 96-well plates. The following Gram-negative bacterial strains were included in these assays: • Escherichia coli ATCC 25922 • Klebsiella pneumoniae ATCC 13883 and ATCC 10031 • Pseudomonas aeruginosa ATCC 27853. • Pseudomonas aeruginosa PAO1 • Acinetobacter baumannii ATCC 19606

[4] = test system: P. Aeruginosa PAO1; experiment: MIC assay in the presence of a bacterial efflux pump inhibitor (EPI), P. aeruginosa PAO1; assay type: cell-based, Pseudomonas aeruginosa; conditions: in the presence of 12.5 μg/ml of N-(((2S,4R)-4-(aminomethyl)pyrrolidin-2-yl)methyl)-6-(4-fluorophenyl)-1H-indole-2-carboxamide
Experimental: The ability of a compound to produce an antibiotic effect can be determined using a method as described in Example 11. Data for representative compounds used in combination with the bacterial efflux pump inhibitor (EPI) N-(((2S,4R)-4-(aminomethyl)pyrrolidin-2-yl)methyl)-6-(4-fluorophenyl)-1H-indole-2-carboxamide is shown in Table 1.
as §1
The EPI assay for the purposes of these studies represents a MIC assay in which the MIC of the antibiotic against the bacteria is tested in the presence of an experimental efflux pump inhibitor (EPI). The highest concentration of the EPI present in the assay typically is ½ of the intrinsic MIC of the compound. […] Using serial dilutions of the EPI, its enhancement of antibiotic activity was then evaluated. The relative EPI activity was decided by comparing the MIC of the antibiotic in the presence of the EPI compound with the intrinsic MIC of the antibiotic alone. For comparative purposes, we generally used EPIs at concentration of 12.5 and 6.25 μg/ml against varying concentration of our test antibiotic.

[5] = test system: E. coli ATCC 25922; experiment: Intrinsic MIC assay (broth microdilution), E. coli; assay type: cell-based, Escherichia coli; conditions: Escherichia coli
Experimental: as §1, §2

[6] = test system: K. pneumoniae ATCC 10031; experiment: Intrinsic MIC assay (broth microdilution), K. pneumoniae; assay type: cell-based, Klebsiella pneumoniae; conditions: Klebsiella pneumoniae
Experimental: as §1, §2

[7] = test system: A. baumannii ATCC 19606; experiment: Intrinsic MIC assay (broth microdilution), A. baumannii; assay type: cell-based, Acinetobacter baumannii; conditions: Acinetobacter baumannii
Experimental: as §1, §2

[8] = 18 h, P. Aeruginosa PAO1, without EPI
[9] = ATCC25922, E. coli ATCC 25922, read-out: Intrinsic MIC
[10] = ATCC10031, K. pneumoniae ATCC 10031, read-out: Intrinsic MIC
[11] = ATCC19606, A. baumannii ATCC 19606, read-out: Intrinsic MIC
[12] = ATCC25922, read-out: Intrinsic MIC
[13] = ATCC10031, read-out: Intrinsic MIC
[14] = ATCC19606, read-out: Intrinsic MIC

Row | Compound | MreB inhibition [1] | Efflux transporter substrate [2] | MIC [3, 8] [µg/mL] | MIC in the Presence of EPI* [4] [µg/mL] | MIC [5, 9] [µg/mL] | MIC [6, 10] [µg/mL] | MIC [7, 11] [µg/mL] | MIC ([3]; PAO1, 18 h) [µg/mL] | MIC [5, 12] [µg/mL] | MIC [6, 13] [µg/mL] | MIC [7, 14] [µg/mL] | Intrinsic MIC ([3]; P. Aeruginosa PAO1, without EPI) [µg/mL]
1 | NC1CCCc2c1[nH]c1ccc(Br)cc21 (stereo not drawn) [CBR-4830] | effective MreB inhibitor | substrate for the MexAB-OprM efflux transporter |  |  |  |  |  |  |  |  |  | 
2 | NC1CCCCc2c1[nH]c1ccc(Br)cc21 (stereo not drawn) [Example 19, 2-Bromo-5,6,7,8,9,10-hexahydrocyclohepta[b]indol-6-amine] |  |  | 128 (≈ 458 µM) | 4 | 16 (≈ 57.3 µM) | 16 (≈ 57.3 µM) | 16 (≈ 57.3 µM) |  |  |  |  | 
3 | NC1CCCCc2c1[nH]c1ccc(Cl)c(Cl)c21 (stereo not drawn) [Example 20, 1,2-Dichloro-5,6,7,8,9,10-hexahydrocyclohepta[b]indol-6-amine hydrochloric acid] |  |  |  | 1 |  |  |  | 32 (≈ 119 µM) | 8 (≈ 29.7 µM) | 2 (≈ 7.43 µM) | 8 (≈ 29.7 µM) | 
4 | NC1CCCCc2c1[nH]c1cc(Cl)c(Cl)cc21 (stereo not drawn) [Example 21, 2,3-Dichloro-5,6,7,8,9,10-hexahydrocyclohepta[b]indol-6-amine hydrochloric acid] |  |  |  | 32 |  |  |  | 256 (≈ 951 µM) | 16 (≈ 59.4 µM) | 8 (≈ 29.7 µM) | 16 (≈ 59.4 µM) | 
5 | NC1CCc2c1[nH]c1ccc(Cl)c(Cl)c21 (stereo not drawn) [Example 22, 7,8-Dichloro-1,2,3,4-tetrahydrocyclopenta[b]indol-3-amine] |  |  |  | 1 | 16 (≈ 66.4 µM) | 8 (≈ 33.2 µM) | 8 (≈ 33.2 µM) |  |  |  |  | 32
6 | NC1CCc2c1[nH]c1cc(Cl)c(Cl)cc21 (stereo not drawn) [Example 23, 6,7-Dichloro-1,2,3,4-tetrahydrocyclopenta[b]indol-3-amine] |  |  | 64 (≈ 265 µM) | 8 | 16 (≈ 66.4 µM) | 8 (≈ 33.2 µM) | 16 (≈ 66.4 µM) |  |  |  |  | 
7 | CC(NCCCNC(=O)c1cc(Cl)c(Cl)s1)c1cc2cc(Br)ccc2[nH]1 (stereo not drawn) [Example 25, N-(3-((1-(5-Bromo-1H-indol-2-yl)ethyl)amino)propyl)-4,5-dichlorothiophene-2-carboxamide] |  |  | > 256 | 16 | 8 (≈ 16.8 µM) | 1 (≈ 2.1 µM) | 16 (≈ 33.7 µM) |  |  |  |  | 
8 | CC(NCCCNC(=O)c1ccc(Cl)o1)c1cc2cc(Br)ccc2[nH]1 (stereo not drawn) [Example 26, N-(3-((1-(5-Bromo-1H-indol-2-yl)ethyl)amino)propyl)-5-chlorofuran-2-carboxamide] |  |  | > 256 | 16 | 64 (≈ 151 µM) | 16 (≈ 37.7 µM) | 128 (≈ 301 µM) |  |  |  |  | 
9 | CC(NCCCNC(=O)c1ccc(Cl)c(Cl)c1)c1cc2cc(Br)ccc2[nH]1 (stereo not drawn) [Example 30, N-(3-((1-(5-Bromo-1H-indol-2-yl)ethyl)amino)propyl)-3,4-dichlorobenzamide] |  |  | > 256 | 32 | 32 (≈ 68.2 µM) | 4 (≈ 8.52 µM) | 64 (≈ 136 µM) |  |  |  |  | 
10 | CC(NCCCNC(=O)C1CCCCC1)c1cc2cc(Br)ccc2[nH]1 (stereo not drawn) [Example 31, N-(3-((1-(5-Bromo-1H-indol-2-yl)ethyl)amino)propyl)cyclohexanecarboxamide] |  |  | > 256 | 128 | 64 (≈ 157 µM) | 16 (≈ 39.4 µM) | 64 (≈ 157 µM) |  |  |  |  | 
11 | CCCCNC(C)c1cc2cc(Br)ccc2[nH]1 (stereo not drawn) [Example 32, N-(1-(5-Bromo-1H-indol-2-yl)ethyl)butan-1-amine] |  |  | > 256 | 64 | 32 (≈ 108 µM) | 16 (≈ 54.2 µM) | 64 (≈ 217 µM) |  |  |  |  | 
12 | CC(NCCc1ccccc1)c1cc2cc(Br)ccc2[nH]1 (stereo not drawn) [Example 33, 1-(5-Bromo-1H-indol-2-yl)-N-phenethylethan-1-amine] |  |  | > 256 | 32 | 16 (≈ 46.6 µM) | 4 (≈ 11.7 µM) | 32 (≈ 93.2 µM) |  |  |  |  | 
13 | CC(NCCNC(=O)c1ccc(Cl)c(Cl)c1)c1cc2cc(Br)ccc2[nH]1 (stereo not drawn) [Example 34, N-(2-((1-(5-Bromo-1H-indol-2-yl)ethyl)amino)ethyl)-3,4-dichlorobenzamide] |  |  | > 256 | 32 | 32 (≈ 70.3 µM) | 4 (≈ 8.79 µM) | 64 (≈ 141 µM) |  |  |  |  | 
14 | CC(NCC1CC1)c1cc2cc(Br)ccc2[nH]1 (stereo not drawn) [Example 35, 1-(5-Bromo-1H-indol-2-yl)-N-(cyclopropylmethyl)ethan-1-amine] |  |  | > 256 | 256 | 128 (≈ 437 µM) | 64 (≈ 218 µM) | 128 (≈ 437 µM) |  |  |  |  | 
15 | NC(CCc1ccccc1)c1cc2cc(Br)ccc2[nH]1 (stereo not drawn) [Example 36, 1-(5-Bromo-1H-indol-2-yl)-3-phenylpropan-1-amine] |  |  | > 256 | 32 | 16 (≈ 48.6 µM) | 8 (≈ 24.3 µM) | 32 (≈ 97.2 µM) |  |  |  |  | 
16 | CC(NCCCC(=O)Nc1ccc(Cl)c(Cl)c1)c1cc2cc(Br)ccc2[nH]1 (stereo not drawn) [Example 37, 4-((1-(5-Bromo-1H-indol-2-yl)ethyl)amino)-N-(3,4-dichlorophenyl)butanamide] |  |  | > 256 | 16 | 16 (≈ 34.1 µM) | 4 (≈ 8.52 µM) | 32 (≈ 68.2 µM) |  |  |  |  | 
17 | CC(NCCCCOc1ccc(Cl)c(Cl)c1)c1cc2cc(Br)ccc2[nH]1 (stereo not drawn) [Example 38, N-(1-(5-Bromo-1H-indol-2-yl)ethyl)-4-(3,4-dichlorophenoxy)butan-1-amine] |  |  | > 256 | 16 | 16 (≈ 35.1 µM) | 4 (≈ 8.77 µM) | 64 (≈ 140 µM) |  |  |  |  | 
18 | CCNCCNC(C)c1cc2cc(Br)ccc2[nH]1 (stereo not drawn) [Example 39, N^1-(1-(5-Bromo-1H-indol-2-yl)ethyl)-N^2-ethylethane-1,2-diaminehydrochloricacid] |  |  | > 256 | > 256 | 256 (≈ 825 µM) | 128 (≈ 413 µM) | 256 (≈ 825 µM) |  |  |  |  | 
